What was measured:
[1] = biological target: T1, RSV pre-fusion F protein of SEQ ID NO: 10 (Human respiratory syncytial virus A, UniProt P03420, D486N/DEL108-136/I379V/M447V/N67I/P102A/S215P); type: physicochemical; conditions: for trimer % after slow freeze with compound vs without: all formulation buffers (AP1, FB12, formulation 1 and 2); for aggregation after slow freeze: formulation 5b (pH 8.3) and 5a (pH 7.0)
T1 construct: made in house
Experimental: The RSV pre-fusion F protein of SEQ ID NO: 10 was diluted to 0.3 mg/ml in phosphate buffer (Formulation 1) and 0.75 ml was filled in glass injection vials with rubber stopper and sealed with aluminum caps. Additionally, protein was diluted in the formulation buffers with inhibitor in a 1:3 trimer:compound ratio. One inhibitor binds one trimer so with a 1:3 ratio there is an excess of inhibitor. […] In 24 hours, samples were cooled down from RT to −70° C. Samples were thawed to RT and analyzed by analytical Size Exclusion Chromatography (SEC) to measure loss of RSV F trimer.
0.75 ml of each formulation was filled in glass injection vials with rubber stopper and sealed with aluminum caps. Additionally, protein was diluted in the formulation buffers and inhibitor was added in a 1:1, 1:3, 1:9, 1:27 and 1:50 trimer: compound ratio. Final compound concentrations were 1.7×10^−6 M, 5.2×10^−6 M, 1.6×10^−5M, 4.6×10^−5, and 8.6×10^−5 M, respectively. Vials were slowly frozen to −70° C. in 24 hours. Samples were subsequently thawed to RT and analyzed by analytical Size Exclusion Chromatography (SEC) to measure loss of RSV F trimer compared the sample that was kept at 4° C.

[2] = biological target: T2, RSV pre-fusion F (preF) protein of SEQ ID NO: 10 (Human respiratory syncytial virus A, UniProt P03420, D486N/DEL108-136/I379V/M447V/N67I/P102A/S215P); type: physicochemical; conditions: with compound 1:3 trimer:compound in sample and UF/DF buffer; formulation 2 without PS20; two weeks after UF/DF
T2 construct: made in house
Experimental: The UF/DF was performed with and without compound. […] A kDa filter in the UF/DF (Cogent μscale TFF system (Merck Millipore, Burlington, MA)) was used and a diavolume of 350 ml UF/DF buffer was used.
After the UF/DF the hydrodynamic diameters were measured by Dynamic Light Scattering (DLS) UNcle from vendor Unchained Labs (Pleasanton, CA, US) two weeks after the UF/DF.

HIV-1 ConB-SOSIP Env = HIV-1 ConB-SOSIP Env (Human immunodeficiency virus type 1 group M subtype B, UniProt P04578, A336T/A346V/A501C/A612T/D137T/D187N/D632E/D99N/DEL145-146/DEL310-311/DEL356-356/DEL401-405/DUP460-460/E409T/E464T/E509R/E620D/E630Q/F175L/F396S/G167D/G321D/H625N/H643Y/I148K/I181V/I182V/I320G/I360V/I467T/I559P/I580V/INS134N/INS317Y/INS395N/INS508RR/K130N/K135N/K192R/K322I/K362N/K429E/K510R/L518M/M147E/M326I/M535I/N230D/N325D/N624D/N636D/Q621E/R306S/R308H/S128T/S162T/S347K/S387T/S398G/S411N/S440R/S461N/S465T/S640G/S644T/T140N/T188N/T194I/T232K/T290E/T31A/T373M/T605C/T626M/V275E/V318A/V87E); test: Thermostability of HIV-1 ConB-SOSIP Env by nanoDSF; type: physicochemical; conditions: 50-fold molar excess of inhibitor; Env 0.8 mg/ml; DMSO 1.95% v/v
HIV Env ConB SOSIP = biological target: T3, HIV Env ConB SOSIP (Human immunodeficiency virus type 1 group M subtype B, UniProt P04578, A336T/A346V/A501C/A612T/D137T/D187N/D632E/D99N/DEL145-146/DEL310-311/DEL356-356/DEL401-405/DUP460-460/E409T/E464T/E509R/E620D/E630Q/F175L/F396S/G167D/G321D/H625N/H643Y/I148K/I181V/I182V/I320G/I360V/I467T/I559P/I580V/INS134N/INS317Y/INS395N/INS508RR/K130N/K135N/K192R/K322I/K362N/K429E/K510R/L518M/M147E/M326I/M535I/N230D/N325D/N624D/N636D/Q621E/R306S/R308H/S128T/S162T/S347K/S387T/S398G/S411N/S440R/S461N/S465T/S640G/S644T/T140N/T188N/T194I/T232K/T290E/T31A/T373M/T605C/T626M/V275E/V318A/V87E); test: Storage stability of ConB-SOSIP Env, antigenicity by AlphaLISA (bNAbs / non-bNAbs); type: binding, HIV-1; conditions: 1 week at 4° C., 50-fold excess
T3 construct: made in house; host or cells: HEK293F
Experimental: HIV env trimer was incubated in Citrate buffer (20 mM Citrate. 75 mM NaCl 5% Sucrose, 0.03% Tween-80 pH 6.0) at 0.8 mg/ml for 1 week at 4° C. with or without inhibitor. Entry inhibitor XVII was added in a 50-fold excess to the purified Env ConB SOSIP. As the inhibitor was dissolved in DMSO, the control sample with only Env contained the same concentration of DMSO (1.95% v/v) as the Env with the inhibitor. The quality of HIV Env can be evaluated with broadly neutralizing antibodies (bNAbs) that bind the closed, native pre-fusion conformation of Env, versus non-broadly neutralizing antibodies (non-bNAbs) which recognize non natively folded Envs (Rutten et. al., Cell Reports 18). […] Preferential binding to bNAbs was higher and binding to all five tested non-bNAbs, except for 447-52D, was decreased for the composition that contained the inhibitor.

Compound | trimer % after slow freeze with compound vs without [1] | aggregation after slow freeze [1] | trimer signal lost after slow freeze/thaw (analytical SEC) ([1]; phosphate buffer (Formulation 1), preF 0.3 mg/ml, 1:3 trimer:compound, RT to −70° C. in 24 hours) | hydrodynamic diameter (DLS) after UF/DF [2] | increase of melting temperature of Env (nanoDSF) (HIV-1 ConB-SOSIP Env) | binding to bNAbs vs Env without inhibitor (HIV Env ConB SOSIP) | binding to five tested non-bNAbs, except for 447-52D, vs Env without inhibitor (HIV Env ConB SOSIP) | quality of HIV Env by antigenicity (AlphaLISA) vs Env without inhibitor (HIV Env ConB SOSIP; Citrate buffer pH 6.0)
CS(=O)(=O)CCCn1c(Cn2c(=O)n(C3CC3)c3ccncc32)nc2cc(Cl)ccc21 [Compound II, 3-[[5-chloro-1-(3-methylsulfonylpropyl)benzimidazol-2-yl]methyl]-1-cyclopropyl-imidazo[4,5-c]pyridin-2-one] | higher trimer % | no aggregations were observed | 2.4+/−1.9% |  |  |  |  | 
CS(=O)(=O)CCCn1c(Cn2c(=O)n(CC(F)(F)F)c3ccncc32)cc2cc(Cl)ccc21 [Compound IV, 3-[[5-chloro-1-(3-methylsulfonylpropyl)indol-2-yl]methyl]-1-(2,2,2-trifluoroethyl)imidazo[4,5-c]pyridin-2-one] | higher trimer % | no aggregations were observed |  | 8.65 nm |  |  |  | 
COc1ccnc2[nH]cc(C(=O)C(=O)N3CCN(C(=O)c4ccccc4)C[C@H]3C)c12 [XVII, 1-[(2R)-4-benzoyl-2-methyl-piperazin-1-yl]-2-(4-methoxy-1H-pyrrolo[2,3-b]pyridin-3-yl)ethane-1,2-dione] |  |  |  |  | ~5 °C | higher | decreased | superior

Source: US20230310573A1, “Stabilized Vaccine Compositions” (priority 2020, published 2023)
